Literature values as cited in patent publication US11324965B2, “Non-invasive energy upconversion methods and systems” (IMMUNOLIGHT, LLC., priority 2009, dated 2022).
Like-named read-outs stand apart in the source and are kept apart here. Square brackets hold non-standard residues; d marks the D form. Peptide text beside a SMILES is read from it. Bpa = N[CH](Cc1ccc(C(=O)c2ccccc2)cc1)C(=O)O; 2Nal = N[CH](Cc1ccc2ccccc2c1)C(=O)O; Aib = CC(C)(N)C(=O)O

Columns and labels:
[1] = for KSSET (Average): average over λex 224, 266, 280 nm
tumors = conditions: in vivo
[2] = orange juice, high UV exposure of 100 mJ/cm^2

duration of skin photosensitivity (in vivo)	duration of skin photosensitivity (clinical use)	degradation of Vitamin C [2]	SMILES	KSSET (Average) [1]	KSSET ([1]; λex 224 nm)	KSSET ([1]; λex 266 nm)	KSSET ([1]; λex 280 nm)	selectivity for tumors compared to normal tissues (tumors)
–	–	–	C=C(NC(C)(C)C(=O)NC(Cc1ccc2ccccc2c1)C(=O)NC(C)(C)C(=O)NC(Cc1ccc(C(=O)c2ccccc2)cc1)C(=O)NC(C)(C)C(=O)NC(C)C(=O)O)C(C)NC(=O)[C@@H](C)N (single isomer, unassigned) [Compound 2A]	3 × 10^7 S^−1	2.1 × 10^7 S^−1	3.7 × 10^7 S^−1	3.2 × 10^7 S^−1	–
–	–	–	C=C(NC(C)(C)C(=O)NC(Cc1ccc2ccccc2c1)C(=O)NC(C)(C)C(=O)NC(Cc1ccc(C(=O)c2ccccc2)cc1)C(=O)NC(C)(C)C(=O)NC(C)C(=O)O)C(C)NC(=O)[C@@H](C)N (single isomer, unassigned) [Compound 2B]	3.9 × 10^7 S^−1	3.1 × 10^7 S^−1	3.9 × 10^7 S^−1	4.7 × 10^7 S^−1	–
–	–	–	CC1NC(=O)C(C)(C)NC(=O)C(Cc2ccc(C(=O)c3ccccc3)cc2)NC(=O)C(C)(C)NC(=O)C(C)NC(=O)C(C)(C)NC(=O)C(Cc2ccc3ccccc3c2)NC(=O)C(C)(C)NC1=O (centres unmarked) [Compound 1A] (cyclo([Aib][2Nal][Aib]A[Aib][Bpa][Aib]A); configuration not given here)	3.67 × 10^7 S^−1	3.8 × 10^7 S^−1	3.6 × 10^7 S^−1	3.6 × 10^7 S^−1	–
–	–	–	CC(NC(=O)C(C)(C)NC(=O)C(Cc1ccc(C(=O)c2ccccc2)cc1)NC(=O)C(C)(C)NC(=O)C(C)NC(=O)C(C)(C)NC(=O)C(Cc1ccc2ccccc2c1)NC(=O)C(C)(C)N)C(=O)O (centres unmarked) [Compound 1B] (H-[Aib][2Nal][Aib]A[Aib][Bpa][Aib]A-OH; configuration not given here)	1.87 × 10^8 S^−1	2.44 × 10^8 S^−1	1.8 × 10^8 S^−1	1.36 × 10^8 S^−1	–
approximately 2 weeks	–	–	Oc1cccc(-c2c3nc(c(-c4cccc(O)c4)c4ccc([nH]4)c(-c4cccc(O)c4)c4nc(c(-c5cccc(O)c5)c5ccc2[nH]5)CC4)C=C3)c1 [Foscan, Tetra (m-hydroxyphenyl) chlorin]	–	–	–	–	–
–	24 to 48 h	–	CC(=O)[O-].CC(=O)[O-].CCc1c(CC)c2cc3nc(cnc4cc(OCCOCCOCCOC)c(OCCOCCOCCOC)cc4ncc4nc(cc1[n-]2)C(CCCO)=C4C)C(C)=C3CCCO.O.[Lu+3] [Lutetium texaphryin, Motexafin lutetium]	–	–	–	–	one of the greatest reported selectivities for tumors
–	–	17%	O=C1O[C@H]([C@@H](O)CO)C(O)=C1O [Vitamin C]	–	–	–	–	–
